Laboratory results published in PubChem BioAssay (NCI).
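Five concentrations, 48 hours, 96-well plates. At the TGI there is no net growth.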

Experiments:
Test in all cases: NCI-60 cell line screen, 48 h
SW-620 colon = tested on: SW-620 colon
MDA-N = tested on: MDA-N
NCI-H23 lung = tested on: NCI-H23 lung
EKVX NSCLC = tested on: EKVX NSCLC
A549 NSCLC = tested on: A549 NSCLC
MCF7 breast = tested on: MCF7 breast
MDA-MB-435 = tested on: MDA-MB-435
UACC-62 melanoma = tested on: UACC-62 melanoma
NCI-H226 lung = tested on: NCI-H226 lung
SK-OV-3 ovarian = tested on: SK-OV-3 ovarian
ACHN renal = tested on: ACHN renal
SF-539 CNS = tested on: SF-539 CNS
RXF 393 renal = tested on: RXF 393 renal
BT-549 breast = tested on: BT-549 breast

SMILES | TGI (SW-620 colon) [µM] | TGI (MDA-N) [µM] | TGI (NCI-H23 lung) [µM] | TGI (EKVX NSCLC) [µM] | TGI (A549 NSCLC) [µM] | TGI (MCF7 breast) [µM] | TGI (MDA-MB-435) [µM] | TGI (UACC-62 melanoma) [µM] | TGI (NCI-H226 lung) [µM] | TGI (SK-OV-3 ovarian) [µM] | TGI (ACHN renal) [µM] | TGI (SF-539 CNS) [µM] | TGI (RXF 393 renal) [µM] | TGI (BT-549 breast) [µM]
[O-]/[N+](=N/c1ncc(-c2ccccc2)cn1)c1ncc(-c2ccccc2)cn1 | > 100 | > 100 | > 100 | > 100 | > 100 | > 100 | > 100 | > 100 | > 100 | > 100 | > 100 | > 100 | > 100 | –
O=C1OC(C2Cc3ccc4c(c3C2=O)CCCC4)c2ccccc21 (stereo not given) | > 100 | > 100 | > 100 | > 100 | > 100 | > 100 | > 100 | 69.9 | 59.2 | > 100 | > 100 | 66.7 | – | > 100
CC1(C)CC2C(/C1=N/O)C1(C)CCCC2(C)C1O (stereo not given) | > 100 | > 100 | > 100 | > 100 | > 100 | > 100 | > 100 | > 100 | > 100 | > 100 | > 100 | – | – | > 100
CNc1cccc2c1C(C)C[C@]1(C)C(=O)Nc3ccccc3[C@H]21 (stereo not given in full) | > 100 | 69.9 | > 100 | > 100 | 38.6 | 47.4 | 53.4 | > 100 | 61.4 | – | 50.8 | > 100 | 50 | –
O=C1Nc2ccccc2/C1=N/N1C(=O)/C(=C/c2ccccc2S)N=C1c1ccccc1 | > 100 | > 100 | > 100 | > 100 | > 100 | > 100 | > 100 | > 100 | – | > 100 | > 100 | > 100 | > 100 | > 100
O=C1COc2cc3c(cc2N1)SCCC(=O)N3 | > 100 | – | > 100 | > 100 | > 100 | – | – | > 100 | > 100 | > 100 | – | > 100 | – | –
O=[N+]([O-])c1cc2ccc1OCc1cccc(n1)COc1ccc(cc1[N+](=O)[O-])C=NCCCCCCCCN=C2 | > 100 | > 100 | > 100 | > 100 | > 100 | > 100 | > 100 | > 100 | > 100 | – | > 100 | > 100 | – | > 100
CC1(C)N([O-])[N+](=O)C1(Br)c1ccccc1 (stereo not given) | > 100 | > 100 | > 100 | > 100 | > 100 | > 100 | > 100 | > 100 | > 100 | > 100 | > 100 | > 100 | > 100 | –
O=c1cc(-c2ccc3ccccc3c2)[nH]c2ncccc12 | > 100 | – | > 100 | > 100 | > 100 | > 100 | – | > 100 | > 100 | > 100 | > 100 | 64.9 | – | > 100
Cc1ccc2nc(-c3ccc(-c4nc5ccc(C)cc5o4)c(O)c3)oc2c1 | > 100 | > 100 | > 100 | – | > 100 | > 100 | > 100 | > 100 | > 100 | > 100 | > 100 | > 100 | – | –
COc1ccc(-c2cc(=O)c3ccc(F)cc3[nH]2)cc1 | > 100 | – | > 100 | > 100 | > 100 | – | – | > 100 | > 100 | > 100 | > 100 | > 100 | > 100 | –
COC(=O)C1Cc2c([nH]c3ccccc23)-c2[nH]c3ccccc3c2CC(NC(C)=O)C(=O)NCC(=O)NCC(=O)N1 (stereo not given) | > 100 | > 100 | > 100 | > 100 | > 100 | – | > 100 | > 100 | > 100 | > 100 | > 100 | > 100 | > 100 | > 100
CC(=O)OC1CC2C(C)(C)OC(=O)CC(OC(C)=O)[C@]2(C)C2CCC3(C)C(=CCC3c3ccoc3)[C@]12C (stereo not given in full) | > 100 | – | > 100 | > 100 | > 100 | – | – | > 100 | 69.6 | 54.1 | > 100 | 93.3 | > 100 | –
COc1ccc(C(c2cc(OC)c(OC)c(OC)c2)N2C(=O)CCC2C(=O)O)cc1 (stereo not given) | > 100 | 56.9 | > 100 | > 100 | > 100 | > 100 | 48.6 | > 100 | > 100 | > 100 | > 100 | 52 | – | –
CC(C)N(C(=O)C12C3(C(=O)C(C)(C)C)C4C5(C#N)C3C1(C(=O)C(C)(C)C)C5C42C(=O)C(C)(C)C)C(C)C (stereo not given) | > 100 | > 100 | > 100 | > 100 | > 100 | > 100 | > 100 | > 100 | – | – | > 100 | > 100 | > 100 | > 100
CNC(=O)OCc1nc(N=[N+]=[N-])n(C)c1COC(=O)NC | > 100 | > 100 | > 100 | > 100 | > 100 | > 100 | > 100 | – | > 100 | – | > 100 | > 100 | 54.5 | > 10
COCCNC1CCC(=O)c2[nH]c3ccccc3c21 (stereo not given) | > 100 | > 100 | > 100 | > 100 | > 100 | > 100 | > 100 | – | > 100 | – | > 100 | > 100 | > 100 | > 100
Cc1ccc(S(=O)(=O)OI(O)CC(F)(F)F)cc1 | > 100 | – | > 100 | > 100 | > 100 | > 100 | > 100 | > 100 | > 100 | > 100 | > 100 | > 100 | > 100 | > 100
N#CCN1CCN(CC#N)CCN(CC#N)CCN(CC#N)CC1 | > 100 | > 100 | > 100 | – | > 100 | > 100 | > 100 | > 100 | > 100 | > 100 | > 100 | > 100 | > 100 | > 100
